{"source": "patent US7959907B2", "about": "“Method of treating cancer by combination therapy using TNF and alpha-galactosylceramide” (VIB VZW, priority 2007, dated 2011)", "key": {"cancer": {"tested_on": "cancer", "details": "clinical studies; cited from earlier work"}, "B16B16 melanoma": {"tested_on": "B16B16 melanoma", "test": "Tumour experiment: subcutaneously growing B16B16 melanoma in C57BL/6 mice, tumor size index", "format": "in vivo", "description": "Female C57BL/6J@RJ mice were purchased from Janvier (Le Genest-Saint-Isle, France). The animals were housed in 14-10 hours light/dark cycles in a temperature-controlled, air-conditioned room, and received food and water ad libitum. The mice were used for the tumour experiment at the age of 8-12 weeks.\nThe melanin-positive melanoma B16B16 cells (Hart et al., 1979) were cultured in RPMI 1640 (Invitrogen) supplemented with 10% FCS, 50 IU/ml penicillin G, 50 μg/ml streptomycin sulphate, 2 mM L-glutamine and 0.4 mM Na-pyruvate. For tumor inoculation cells were detached from the culture flask by a short EDTA treatment, washed three times in endotoxin-free sterile PBS (Sigma), and resuspended in PBS at 6×10^6 cells/ml.\nOn day 0, the mice were inoculated with 6×10^5 cells subcutaneously in the back just in front of the hind limb. Treatment was started when the tumor size index (TSI), i.e., the product of the largest perpendicular diameters in cm, reached 0.5 (day 13). Treatment with hTNF (30 μg/injection) or low dose mTNF (0.7 μg/injection) was given daily for 9 or 10 consecutive days via paralesional injection (subcutaneous injection near the site of the tumor, but outside the nodule). Alpha-GalCer (1-2 μg/injection) was injected intraperitoneally. […] TSI and body weight were measured every day prior to injection and every two or three days when treatment was finished."}}, "data": [{"smiles": "CCCCCCCCCCCCCCCCCCCCCCCCCC(=O)N[C@@H](CO[C@H]1O[C@H](CO)[C@H](O)[C@H](O)[C@H]1O)[C@H](O)[C@H](O)CCCCCCCCCCCCCC", "note": "[alpha-GalCer, (2S 3S, 4R)-1-O-(alfa-D-galactopyranosyl)-N-hexacosanoyl-2-amino-1,3,4-octadecanetriol]", "values": [{"measurement": "clinical anti-tumour effects", "setting": "cancer", "result": "no clinical anti-tumour effects were recorded"}, {"measurement": "effect on tumour growth", "setting": "B16B16 melanoma; larger scale experiment, n=7, alpha-GalCer 1 μg/mouse pre-treatment, hTNF 30 μg/injection, low dose mTNF 0.7 μg/injection", "result": "small inhibiting effect"}, {"measurement": "effect on tumor growth", "setting": "B16B16 melanoma; pilot experiment, alpha-GalCer 2 μg/mouse i.p., hTNF 30 μg/injection paralesional daily, single agents alone", "result": "no effect on tumor growth"}]}]}
